Measurements published in US10253049B2, “Boronic acid derivatives” (MERCK PATENT GMBH, priority 2014, dated 2019).

Experiments:
[1] = biological target: Beta5 (purified human constitutive proteasome) (Homo sapiens, UniProt P28074); assay: Determination of Beta5 activity (fluorescence intensity assay, Suc-LLVY-AMC); type: biochemical
Method: Determination of Beta5 Activity
Measurement of Beta5 inhibition is performed in 384 well format based on fluorescence intensity assay.
(§1) Purified human constitutive proteasome (1.25 nM) and serial diluted compounds in DMSO (range of concentrations from 30 μM to 15 pM) or controls are incubated for 20 minutes or 120 minutes (long incubation) at 25° C. in assay buffer containing 50 mM Tris pH 7.4, 0.03% SDS, 1 mM EDTA and 1% DMSO. The reaction is initiated by the addition of the fluorogenic peptide substrate, Suc-LLVY-AMC (Bachem I-1395), at a concentration of 40 μM. After 60 minutes of incubation at 37° C., fluorescence intensity is measured at λex=350 nm and λem=450 nm with a fluorescence reader (Perkin Elmer Envision reader or equivalent).
(§2) Unless indicated otherwise the results are obtained after incubation for 20 minutes.

[2] = biological target: LMP7 (purified human immunoproteasome) (Homo sapiens, UniProt P28062); assay: Determination of LMP7 activity (fluorescence intensity assay, Suc-LLVY-AMC); type: biochemical
Method: Determination of LMP7 Activity
Measurement of LMP7 inhibition is performed in 384 well format based on fluorescence intensity assay.
as §1, with “immunoproteasome (0.25” for “constitutive proteasome (1.25”
as §2

[3] = biological target: LMP7 subunit of the immunoproteasome (Homo sapiens, UniProt P28062); conditions: Singh et al., Br. J. Hematology 152(2): 155-163; cited from earlier work

| SMILES | IC50 ([1]; incubation for 20 minutes) [nM] | Selectivity LMP7 vs Beta5 ([1]; incubation for 20 minutes) | IC50 ([2]; incubation for 20 minutes) [nM] | IC50 ([1]; long incubation (120 min)) [nM] | Selectivity LMP7 vs Beta5 ([1]; long incubation (120 min)) | IC50 ([2]; long incubation (120 min)) [nM] | selectivity for the LMP7 subunit of the immunoproteasome [3] [fold] |
| --- | --- | --- | --- | --- | --- | --- | --- |
| CCc1cccc(C[C@H](NC(=O)CCCS(C)(=O)=O)B(O)O)c1 [Compound No. 21, [(1R)-2-(3-ethylphenyl)-1-(4-methylsulfonylbutanoylamino)ethyl]-boronic acid] | > 5000 | +++ (+++: 30 ≤ Selectivity < 50) | 50 to 500 | – | – | – | – |
| Cc1ccc(S(=O)(=O)N(C)CC(=O)N[C@@H](Cc2ccc(C)cc2C)B(O)O)cc1 [Compound No. 32, [(1R)-2-(2,4-dimethylphenyl)-1-[[2-[methyl(p-tolylsulfonyl)amino]-acetyl]amino]ethyl]boronic acid] | 50 to 500 | +++++ (+++++: Selectivity ≥ 70) | < 50 | – | – | – | – |
| CCN(CC(=O)N[C@@H](Cc1coc2c(C)cccc12)B(O)O)S(=O)(=O)c1ccc(C)cc1 [Compound No. 43, [(1R)-1-[[2-[ethyl(p-tolylsulfonyl)amino]acetyl]amino]-2-(7-methylbenzofuran-3-yl)ethyl]boronic acid] | – | – | – | > 5000 | +++++ (+++++: Selectivity ≥ 70) | 50 to 500 | – |
| Cc1ccc(S(=O)(=O)N(CC(=O)N[C@@H](C[C@@H]2COc3ccccc32)B(O)O)C(C)C)cc1 [Compound No. 41, [(1R)-2-[(3S)-2,3-dihydrobenzofuran-3-yl]-1-[[2-[isopropyl(p-tolylsulfonyl)amino]acetyl]amino]ethyl]boronic acid] | – | – | – | 500 to 5000 | +++++ (+++++: Selectivity ≥ 70) | < 50 | – |
| CCN(CCC(=O)N[C@@H](Cc1ccc(F)cc1)B(O)O)C(=O)c1ccc(Cl)cc1 [Compound No. 26, [(1R)-1-[3-[(4-chlorobenzoyl)-ethyl-amino]propanoylamino]-2-(4-fluorophenyl)ethyl]boronic acid] | 50 to 500 | ++++ (++++: 50 ≤ Selectivity < 70) | < 50 | – | – | – | – |
| CCC(=O)N(CC)CC(=O)N[C@@H](Cc1ccc(C)cc1C)B(O)O [Compound No. 24, [(1R)-2-(2,4-dimethylphenyl)-1-[[2-[ethyl(propanoyl)amino]acetyl]-amino]ethyl]boronic acid] | > 5000 | +++++ (+++++: Selectivity ≥ 70) | 50 to 500 | – | – | – | – |
| CCN(CC(=O)N[C@@H](Cc1ccc(C)cc1)B(O)O)S(=O)(=O)c1ccccc1 [Compound No. 16, [(1R)-1-[[2-[benzenesulfonyl(ethyl)amino]acetyl]amino]-2-(p-tolyl)ethyl]boronic acid] | 50 to 500 | +++ (+++: 30 ≤ Selectivity < 50) | < 50 | – | – | – | – |
| CCN(CC(=O)N[C@@H](Cc1ccc(C)cc1C)B(O)O)C(=O)CSC [Compound No. 36, [(1R)-2-(2,4-dimethylphenyl)-1-[[2-[ethyl-(2-methylsulfanylacetyl)-amino]acetyl]amino]ethyl]boronic acid] | > 5000 | ++++ (++++: 50 ≤ Selectivity < 70) | 50 to 500 | – | – | – | – |
| Cc1ccc(C[C@H](NC(=O)CN(c2ccccc2)S(=O)(=O)c2ccccc2)B(O)O)c(C)c1 [Compound No. 35, [(1R)-1-[[2-[N-(benzenesulfonyl)anilino]acetyl]amino]-2-(2,4-dimethylphenyl)ethyl]boronic acid] | 50 to 500 | ++++ (++++: 50 ≤ Selectivity < 70) | < 50 | – | – | – | – |
| CC(C)N(CCC(=O)N[C@@H](Cc1ccccc1)B(O)O)C(=O)c1ccccc1 [Compound No. 9, [(1R)-1-[3-[benzoyl(isopropyl)amino]propanoylamino]-2-phenyl-ethyl]boronic acid] | 500 to 5000 | +++ (+++: 30 ≤ Selectivity < 50) | 50 to 500 | – | – | – | – |
| CCN(CCC(=O)N[C@@H](Cc1ccccc1)B(O)O)C(=O)c1ccc(C)cc1 [Compound No. 14, [(1R)-1-[3-[ethyl-(4-methylbenzoyl)amino]propanoylamino]-2-phenyl-ethyl]boronic acid] | 500 to 5000 | +++ (+++: 30 ≤ Selectivity < 50) | < 50 | – | – | – | – |
| CC1=C(C(=O)N[C@H](C)C(=O)N[C@@H](Cc2c[nH]c3ccccc23)C(=O)N[C@@H](Cc2ccccc2)C(=O)[C@@]2(C)CO2)Cc2ccccc21 [PR-924] | – | – | – | – | – | – | 100 |
| CCN(CCC(=O)N[C@@H](Cc1ccc(C)cc1C)B(O)O)C(=O)c1ccc(C)cc1 [Compound No. 19, [(1R)-2-(2,4-dimethylphenyl)-1-[3-[ethyl-(4-methylbenzoyl)amino]-propanoylamino]-ethyl]boronic acid] | 500 to 5000 | +++++ (+++++: Selectivity ≥ 70) | < 50 | – | – | – | – |
| CCN(CCC(=O)N[C@@H](Cc1ccc(F)cc1)B(O)O)C(=O)c1ccc(C(F)(F)F)cc1 [Compound No. 27, [(1R)-1-[3-[ethyl-[4-(trifluoromethyl)benzoyl]amino]propanoylamino]-2-(4-fluorophenyl)ethyl]boronic acid] | 50 to 500 | +++ (+++: 30 ≤ Selectivity < 50) | < 50 | – | – | – | – |
| CCC(=O)N(CC(=O)N[C@@H](Cc1ccsc1)B(O)O)c1ccccc1F [Compound No. 39, [(1R)-1-[[2-(2-fluoro-N-propanoyl-anilino)acetyl]amino]-2-(3-thienyl)ethyl]boronic acid] | > 5000 | +++ (+++: 30 ≤ Selectivity < 50) | 500 to 5000 | – | – | – | – |
